Measured values taken from US20210115509A1, “BIOMARKER FOR IDENTIFYING SPECIFIC EXPOSURE TO KETONES AND METHOD OF IDENTIFICATION USING THE SAME” (KOREA INSTITUTE OF SCIENCE AND TECHNOLOGY, priority 2019, published 2021).

Legend:
[1] = tested on: BEAS-2B human bronchial epithelial cell line; assay: Gene expression change by high-throughput RNA sequencing (NextSeq 500) in ketone-exposed BEAS-2B cells; assay type: cell-based
Method: RNA was extracted from cell samples of ketone-exposed and non-ketone-exposed groups using a TRIzol reagent (Life Technologies, USA) in accordance with the manufacturer's directions to isolate total RNA and the total RNA was purified using a RNeasy mini kit (Qiagen, USA). The concentration of each total RNA sample was determined by a ND-2000 spectrophotometer (Thermo Inc., DE, USA) as a spectrophotometer and Agilent 2100 Bioanalyzer (Agilent Technologies, USA).
The establishment of libraries from the total RNA obtained in Example 2-1 in the experimental group and the normal control group exposed to the ketones was carried out using a QuantSeq 3′ mRNA-Seq Library Prep Kit (Lexogen, Inc., Austria) in accordance with the manufacturer's directions. 500 ng of the total RNA was hybridized with an oligo-dT primer including an Illumina-compatible sequence at the 5′ end of RNA, followed by reverse transcription. After degradation of the RNA template, a second strand was synthesized using a random primer including an Illumina-compatible linker sequence at the 5′ end thereof. Double-stranded libraries were purified using magnetic beads to remove all reaction components. The library was amplified in order to add the entire adapter sequence required for cluster production, and the completed cDNA library was purified from the PCR components.
Sequencing was performed by high-throughput sequencing as single-end 75 sequencing using a NextSeq 500 (IIlumina, Inc., USA). Read count (RC) data was processed based on the quantile normalization method using EdgeR in R (R development Core Team, 2016) using Bioconductor (Gentleman et al., 2004). Gene classification was based on searches performed on DAVID (http://david.abcc.ncifcrf.gov/) and the Medline database (http://www.ncbi.nlm.nih.gov/).
The extracted data were analyzed through normalization using Agilent GeneSpring GX 12.6.1 (Agilent technologies, CA, USA) to analyze the expression pattern of each gene.

[2] = tested on: BEAS-2B human bronchial epithelial cell line; assay: MTT assay, cytotoxicity of ketone compounds in BEAS-2B cell line; assay type: cell-based; settings: BEAS-2B, 48 hours, MTT
Method: BEAS-2B (Korean Cell Line Bank), a human bronchial epithelial cell line, was cultured using RPMI 1640 medium (Gibco, USA) supplemented with 10% FBS until the cells grew to about a confluence of 70 to 80% in a 100 mm dish.
Among ketones belonging to mVOCs (microbial volatile organic compounds) exposed to the environment, acetone, 2-butanone, 2-pentanone, 2-hexanone and 2-heptanone were selected, and the chemicals were dissolved in filtered distilled water (DW). A vehicle concentration was set to 0.1% or less in all experiments.
MTT assay using a BEAS-2B cell line was performed in accordance with the method of Mossman et al. (J. Immunol. Methods, 65, 55-63, 1983).
Specifically, the cells were seeded at a density of 3.5×10^4 cells/well in a 24-well plate and treated with the five ketone compounds dissolved in filtered distilled water, prepared in Example 1-2. After 48 hours, the result was mixed with 5 mg/ml of MTT (3-4,5-dimethylthiazol-2,5-diphenyltetrazolium bromide), added to a tube and incubated at 37° C. for 3 hours. Then, the medium was removed, the formed formazan crystal was dissolved in 500 μl of DMSO, and then 100 μl of the solution was transferred to a 96-well plate to measure an OD (optical density) value at 540 nm.

[3] = IC5 conc.: Acetone 5.38, 2-Butanone 22.27, 2-Pentanone 5.24, 2-Hexanone 14.82, 2-Heptanone 5.05 mM
[4] = IC20 conc.: Acetone 71.90, 2-Butanone 106.21, 2-Pentanone 39.38, 2-Hexanone 52.51, 2-Heptanone 20.22 mM

In the case of `CCC(C)=O` [2-Butanone, 2-butanone], the “Fold change ADRA2A (NM_000681)” value [1, 3] was 0.185, the “Fold change ATRNL1 (NR_074088)” value [1, 3] was 3.234 and the “Fold change C12orf79 (NR_046159)” value [1, 3] was 0.216. For the same compound, the “Fold change C14orf80 (NR_046159)” value [1, 3] was 0.356, the “Fold change CALML3 (NM_001286399)” value [1, 3] was 0.356 and the “Fold change CCDC184 (NM_001013635)” value [1, 3] was 2.379. The “Fold change CD37 (NM_001040031)” value [1, 3] was 3.286, the “Fold change CDHR1 (NM_001171971)” value [1, 3] was 0.470 and the “Fold change CHL1 (NM_001253387)” value [1, 3] was 0.274. The “Fold change COL4A3 (NM_000091)” value [1, 3] was 2.264, the “Fold change CRLF2 (NM_022148)” value [1, 3] was 0.359 and the “Fold change CSF3R (NM_172313)” value [1, 3] was 0.356. For the same compound, the “Fold change DNMBP-AS1 (NR_024130)” value [1, 3] was 11.453, the “Fold change EGR1 (NM_001964)” value [1, 3] was 0.422 and the “Fold change GNA14 (NM_004297)” value [1, 3] was 3.512. The “Fold change LOC728752 (NR_036504)” value [1, 3] was 3.506, the “Fold change PAX8 (NM_003466)” value [1, 3] was 6.636 and the “Fold change PRRT3-AS1 (NR_046734)” value [1, 3] was 2.207. For the same compound, the “Fold change RBP3 (NM_002900)” value [1, 3] was 0.356, the “Fold change SEPT14 (NM_207366)” value [1, 3] was 0.458 and the “Fold change SERPINA12 (NM_001304461)” value [1, 3] was 0.356. For the same compound, the “Fold change SLC13A4 (NM_012450)” value [1, 3] was 7.697, the “Fold change SPOCK2 (NM_001244950)” value [1, 3] was 3.020 and the “Fold change TSPAN1 (NM_005727)” value [1, 3] was 2.540. For the same compound, the “Fold change USP12-AB1 (NR_046647)” value [1, 3] was 3.499, the “Fold change VIPR†-AS1 (NR_046654)” value [1, 3] was 0.356 and the “Fold change XIRP1 (NM_001198621)” value [1, 3] was 0.356. For the same compound, the “Fold change ZFP69B (NM_023070)” value [1, 3] was 4.676, the “Fold change ZNF432 (NM_014650)” value [1, 3] was 2.326 and the “Fold change ZNF487 (NR_026693)” value [1, 3] was 0.356. The “Fold change ADRA2A (NM_000681)” value [1, 4] was 0.184, the “Fold change ATRNL1 (NR_074088)” value [1, 4] was 2.330 and the “Fold change C12orf79 (NR_046159)” value [1, 4] was 0.216. For the same compound, the “Fold change C14orf80 (NR_046159)” value [1, 4] was 0.356, the “Fold change CALML3 (NM_001286399)” value [1, 4] was 0.356 and the “Fold change CCDC184 (NM_001013635)” value [1, 4] was 6.647. For the same compound, the “Fold change CD37 (NM_001040031)” value [1, 4] was 2.647, the “Fold change CDHR1 (NM_001171971)” value [1, 4] was 0.222 and the “Fold change CHL1 (NM_001253387)” value [1, 4] was 0.268. The “Fold change COL4A3 (NM_000091)” value [1, 4] was 3.577, the “Fold change CRLF2 (NM_022148)” value [1, 4] was 0.359 and the “Fold change CSF3R (NM_172313)” value [1, 4] was 0.356. For the same compound, the “Fold change DNMBP-AS1 (NR_024130)” value [1, 4] was 12.732, the “Fold change EGR1 (NM_001964)” value [1, 4] was 0.404 and the “Fold change GNA14 (NM_004297)” value [1, 4] was 5.582. For the same compound, the “Fold change LOC728752 (NR_036504)” value [1, 4] was 6.647, the “Fold change PAX8 (NM_003466)” value [1, 4] was 2.233 and the “Fold change PRRT3-AS1 (NR_046734)” value [1, 4] was 2.147. The “Fold change RBP3 (NM_002900)” value [1, 4] was 0.356, the “Fold change SEPT14 (NM_207366)” value [1, 4] was 0.217 and the “Fold change SERPINA12 (NM_001304461)” value [1, 4] was 0.356. For the same compound, the “Fold change SLC13A4 (NM_012450)” value [1, 4] was 8.571, the “Fold change SPOCK2 (NM_001244950)” value [1, 4] was 8.426 and the “Fold change TSPAN1 (NM_005727)” value [1, 4] was 2.466. For the same compound, the “Fold change USP12-AB1 (NR_046647)” value [1, 4] was 5.570, the “Fold change VIPR†-AS1 (NR_046654)” value [1, 4] was 0.356 and the “Fold change XIRP1 (NM_001198621)” value [1, 4] was 0.356. The “Fold change ZFP69B (NM_023070)” value [1, 4] was 2.942, the “Fold change ZNF432 (NM_014650)” value [1, 4] was 6.342 and the “Fold change ZNF487 (NR_026693)” value [1, 4] was 0.356. The “concentration (105) providing a survival rate (viability) of 95%” value [2] was 22270 µM and the “concentration (1020) providing a survival rate (viability) of 80%” value [2] was 106210 µM.
